One data set relates to human neutrophils. The experiment in a line: Neutrophil response to fluid shear-stress in vitro. In kind it is cell-based. The method, then:
In these experiments the shear-stress was kept sufficiently low (˜1 dyn/cm2) to avoid significant viscoelastic cell deformation. Fresh leukocytes from pin-pricked blood of healthy volunteers were collected in Vacutainer tubes (sodium heparin pre-treated, Becton Dickinson, Franklin Lakes, N.J.). The red blood cells were allowed to sediment at room temperature for about 30 minutes. The supernatant mixture of 1 part platelets and leukocytes was resuspended in 20 parts Plasma Lyte (Baxter Healthcare Corp., Deerfield, Ill.). Neutrophils, monocytes and lymphocytes were identified by their morphology (125× magnification). All experiments were performed within four hours following blood collection.
100 μl of the cell preparation was deposited into a small chamber with a transparent bottom on an inverted microscope (Leitz Diavert, Germany) with a 50× objective. […]
Filmed neutrophils presented various responses to shear-stress. In order to quantify the results neutrophil response was divided into three categories: […]

For a further data set, the system named is neutrophils. The following applies: cited from earlier work.
Data set [1] in a line: pH and solubility of Futhan. It is filed as physicochemical. The method, then:
The reasons for the ineffectiveness of Futhan in ameliorating SAO shock in initial experiments appeared to be due to the pH of Futhan in solution, which is approximately 3.5 at the concentration of I mg/ml in 5% glucose-deionized (DI) water as per the manufacturer's instructions. Under the established protocol, approximately 2 ml of this solution were injected at the rate of 0.05 ml every 5 minutes into an approximate rat blood volume of 20 ml. In sham-shocked animals (not reported here) the buffering capacity of blood is able to absorb any perturbations in pH. In shocked animals, however, the pH buffering capacity, especially of the pancreas and small intestine, is severely compromised. Thus, the injection of Futhan would contribute to irreversible acidosis. […] Although the animals recovered from these transient depressions of MAP, Futhan injected animals typically expressed a lower MAP than the saline-injected group. This difference was not significant.

On to `CS(=O)(=O)O.CS(=O)(=O)O.N=C(N)Nc1ccc(C(=O)Oc2ccc3cc(C(=N)N)ccc3c2)cc1` [Futhan, 6-amidino-2-naphthyl p-guanidinobenzoate dimethanesulfonate], for which the “effect of Futhan on neutrophil activation in shear-stress test” value in the data set with human neutrophils (10 μl Futhan 0.05 and 0.13 mg/ml in 5% glucose + 10 μl pig pancreatic homogenate + 80 μl cells) was “slightly pro-inflammatory effect”. In the data set with human neutrophils (Futhan 0.05 and 0.13 mg/ml + pig pancreatic homogenate), the “complete response to shear stress of Futhan-treated neutrophils” value was “no Futhan-treated neutrophil exhibited a complete response”. Moreover, the free radical scavenging result in the data set on neutrophils is reported as “does not possess any free radical scavenging effects”. Moreover, the “zymosan-induced chemiluminescence activation by neutrophils” value in the data set with neutrophils (in vitro) was “inhibited zymosan-induced chemiluminescence activation by neutrophils”. Also, the “pH of Futhan in solution” value in data set [1] (I mg/ml in 5% glucose-deionized (DI) water) is “approximately 3.5”. For the same compound, in data set [1] (alcohol, rat serum, DMSO, balanced Tris (Trizma) buffer at physiologic pH), the solubility entry was “insoluble”.

(Values after US20030190368A1, “METHODS OF DIAGNOSIS AND TRIAGE USING CELL ACTIVATION MEASURES” (priority 1998, published 2003).)
